Activity calls are given as the source filed them.
Key:
[1] = tested on: P388/ADR; experiment: cells; assay type: functional; conditions: Mus musculus
[2] = tested on: SN12K1; experiment: cells; assay type: functional; conditions: Homo sapiens
[3] = tested on: P388; experiment: cells; assay type: functional; conditions: Mus musculus
[4] = target: T1, Adenosylmethionine-8-amino-7-oxononanoate aminotransferase (Mycobacterium tuberculosis, UniProt P9WQ81); experiment: Mycobacterium tuberculosis BioA enzyme inhibitor Measured in Biochemical System Using Plate Reader - 2163-02_Inhibitor_Dose_CherryPick_Activity.; assay type: functional, Mycobacterium tuberculosis UT205
T1 sequence (P9WQ81 whole entry): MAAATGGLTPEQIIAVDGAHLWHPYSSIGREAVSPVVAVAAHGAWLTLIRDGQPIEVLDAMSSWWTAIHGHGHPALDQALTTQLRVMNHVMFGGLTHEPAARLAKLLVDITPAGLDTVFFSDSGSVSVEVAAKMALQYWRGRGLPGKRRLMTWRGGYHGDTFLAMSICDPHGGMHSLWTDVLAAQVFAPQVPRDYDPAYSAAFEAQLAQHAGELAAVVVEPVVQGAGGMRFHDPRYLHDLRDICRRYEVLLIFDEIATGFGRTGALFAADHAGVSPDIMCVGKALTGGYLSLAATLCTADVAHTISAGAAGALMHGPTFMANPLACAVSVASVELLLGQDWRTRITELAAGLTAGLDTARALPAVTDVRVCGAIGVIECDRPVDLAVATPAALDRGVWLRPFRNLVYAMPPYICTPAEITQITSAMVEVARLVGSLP

[5] = target: Paired box protein Pax-8 (Homo sapiens, UniProt Q06710); experiment: PAX8 transcriptional activity inhibition in RMG-I – RMG-I cells, luciferase, cherry-pick, dose response (AID 687027); assay type: functional, cell-based;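 also: luciferase reporter driven by Pax8 target thyroperoxidase promoter measured by SteadyGlo luminescence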
[6] = OVCAR8 cell viability loss – plate reader, dry powder samples, PAX8 project, dose response (AID 743197); assay type: functional, cell-based; conditions: OVCAR-8
[7] = OVCAR-3 cell viability loss – plate reader, dry powder samples, PAX8 inhibitor project, dose response (AID 743044); assay type: functional, cell-based
[8] = A2780 cell killing – plate reader, dry powder samples, cytotoxicity control, dose response (AID 743046); assay type: functional, cell-based

Sequence of Paired box protein Pax-8 (Q06710 whole entry): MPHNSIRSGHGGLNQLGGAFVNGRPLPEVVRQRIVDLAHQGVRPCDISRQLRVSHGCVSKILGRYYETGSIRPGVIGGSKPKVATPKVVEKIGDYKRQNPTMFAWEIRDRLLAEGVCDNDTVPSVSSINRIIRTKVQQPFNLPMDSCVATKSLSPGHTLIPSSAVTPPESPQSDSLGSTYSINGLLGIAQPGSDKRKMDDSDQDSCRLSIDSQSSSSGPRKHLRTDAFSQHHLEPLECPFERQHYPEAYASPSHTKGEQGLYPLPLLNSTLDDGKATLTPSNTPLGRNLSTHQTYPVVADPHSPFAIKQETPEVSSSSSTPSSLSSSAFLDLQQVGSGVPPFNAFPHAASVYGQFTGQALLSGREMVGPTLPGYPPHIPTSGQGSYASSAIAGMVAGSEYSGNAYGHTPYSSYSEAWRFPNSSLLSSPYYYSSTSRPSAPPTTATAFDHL

| SMILES | GI50 [1] | GI50 [2] | GI50 [3] | AC50 [5] | other results |
| --- | --- | --- | --- | --- | --- |
| CC(=O)OCc1cc(=O)n(C)c2c3c4c(cc12)c(C)cc(=O)n4CO3 | 0.531 µM (active) | 0.843 µM (active) | 0.344 µM (active) | – | – |
| CCCCC1(C2c3ccccc3Oc3ccccc32)C(=O)N(c2ccccc2)N(c2ccccc2)C1=O | 17.6 µM (inactive) | 34.8 µM (inactive) | 9.82 µM (inactive) | – | – |
| CN1c2ccc(-c3cccc(F)c3)cc2[C@H]2[C@H](CCN2C(=O)C2CCOCC2)[C@H]1CO | – | – | – | – | AC50 [4]: 0.108 µM (active) |
| C[C@@H]1CN([C@H](C)CO)C(=O)c2cc(NC(=O)CCCCCC(=O)Nc3ccccc3N)ccc2O[C@@H](C)CCCCO[C@H]1CN(C)Cc1ccc(Cl)c(Cl)c1 | – | – | – | 12.2 µM (active) | AC50 [6]: 65.4 µM (active) |
| C[C@@H]1CCCCO[C@@H](CN(C)C(=O)c2ccccc2)[C@H](C)CN([C@H](C)CO)C(=O)c2cc(NC(=O)Nc3ccc(C(F)(F)F)cc3)ccc2O1 | – | – | – | 3.53 µM (active) | AC50 [7]: 36.5 µM (active); AC50 [6]: > 70 µM (inactive) |
| Cc1ccc(-c2ccc([C@H]3[C@@H](CO)N4CCCCN(C(=O)Nc5cccc(F)c5)C[C@H]34)cc2)cc1 | – | – | – | 21.7 µM (active) | AC50 [8]: 39.1 µM (active); AC50 [7]: 37.5 µM (active) |
| NCCCNCCSP(=O)(O)O [AMIFOSTINE] | 84.3 µM (inactive) | > 667 µM (inactive) | 54.6 µM (inactive) | – | – |
| Cn1c(/C=C/CO)c(CO)c2c1C(=O)C=C(N1CC1)C2=O [APAZIQUONE] | 0.506 µM (active) | 0.0102 µM (active) | 0.94 µM (active) | – | – |

From ChEMBL document CHEMBL1201862, “PubChem BioAssay data set” (2004)
